Measured values from US10053485B2, “Cytotoxic agents that preferentially target leukemia inhibitory factor (LIF) for the treatment of malignancies and as new contraceptive agents” (Evestra, Inc., priority 2015, dated 2018).

Columns and labels:
MDA-MB-468 = test: NCI-60 screen, Breast Cancer panel; type: cell-based; conditions: Homo sapiens, MDA-MB-468, 48 h
Protocol: EC 330 was also tested using the NCI-60 Screening Methodology. The human tumor cell lines of the cancer screening panel are grown in RPMI 1640 medium containing 5% fetal bovine serum and 2 mM L-glutamine. For a typical screening experiment, cells are inoculated into 96 well microtiter plates in 100 μL at plating densities ranging from 5,000 to 40,000 cells/well depending on the doubling time of individual cell lines. After cell inoculation, the microtiter plates are incubated at 37° C., 5% CO2, 95% air and 100% relative humidity for 24 h prior to addition of experimental drugs. […]
Following drug addition, the plates are incubated for an additional 48 h at 37° C., 5% CO2, 95% air, and 100% relative humidity. […] Bound stain is subsequently solubilized with 10 mM trizma base, and the absorbance is read on an automated plate reader at a wavelength of 515 nm. […] Using the seven absorbance measurements [time zero, (Tz), control growth, (C), and test growth in the presence of drug at the five concentration levels (Ti)], the percentage growth is calculated at each of the drug concentrations levels. Percentage growth inhibition is calculated as: [(Ti−Tz)/(C−Tz)]×100 for concentrations for which Ti>/=Tz [(Ti−Tz)/Tz]×100 for concentrations for which Ti<Tz.
Three dose response parameters are calculated for each experimental agent. […]

[1] = tested on: Patient derived tumor (melanoma): p53, LIF, MDM2, pSTAT3, Ki67; test: Immunohistochemistry analysis of patient derived tumor; type: cell-based, human; conditions: 10 nM and 1 uM for 5 days, FIG. 10
Protocol: Patient derived tumor (melanoma) was treated with the compounds at 10 nM and 1 uM for 5 days in RPMI medium and harvested on day 6 using established protocol and immunohistochemistry was performed for different antibodies including p53, LIF, MDM2, pSTAT3, Ki67.

CCRF-CEM = test: NCI-60 screen, Leukemia panel; type: cell-based; conditions: Homo sapiens, 48 h
UO-31 = test: NCI-60 screen, Renal Cancer panel; type: cell-based; conditions: Homo sapiens, UO-31, 48 h
ACHN = test: NCI-60 screen, Renal Cancer panel; type: cell-based; conditions: Homo sapiens, 48 h
CAKI-1 = test: NCI-60 screen, Renal Cancer panel; type: cell-based; conditions: Homo sapiens, CAKI-1, 48 h
SF-295 = test: NCI-60 screen, CNS Cancer panel; type: cell-based; conditions: Homo sapiens, SF-295, 48 h
[2] = tested on: various cancer cells lines; test: Cytotoxicity assays in various cancer cell lines; type: cell-based; conditions: in words
Protocol: Briefly, 5×10^3 cells were seeded in 96-well plates and incubated with compounds (0.0001-10 μmol/L) or dimethyl sulfoxide (DMSO; 0.02% v/v) for 24, 48, and 72 hours at 37° C. and cell viability was measured using a Fluoroscan plate reader.

SK-MEL-28 = test: NCI-60 screen, Melanoma panel; type: cell-based; conditions: Homo sapiens, SK-MEL-28, 48 h
OVCAR-4 = test: NCI-60 screen, Ovarian Cancer panel; type: cell-based; conditions: Homo sapiens, OVCAR-4, 48 h
[3] = read-out: LC50 (log10LC50) (converted)
[4] = read-out: GI50 (log10GI50) (converted)

## C#CC(F)(F)[C@]1(O)CCC2C3CCC4=CC(=O)CCC4=C3C(c3ccc(C4CC4)cc3)C[C@@]21C (stereo partly drawn) [EC330, 17α-(1,1-difluoro-2-propyn-1-yl)-17β-hydroxy-11β-[4-p-(cyclopropyl)phenyl]estra-4,9-dien-3-one]
MDA-MB-468; [3]
  CC50: 50100 nM
MDA-MB-468; SRB, read-out: GI50 (log10GI50) (converted)
  GI50: 204 nM
[1]
  apoptosis, p53, MDM2, LIF mediated STAT3 phosphorylation (immunohistochemistry): induce apoptosis and restore p53 by inhibiting MDM2 and LIF mediated STAT3 phosphorylation
CCRF-CEM; [4]
  GI50: < 10 nM
CCRF-CEM; [3]
  CC50: < 10 nM
UO-31; [4]
  GI50: < 10 nM
UO-31; [3]
  CC50: < 10 nM
ACHN; [4]
  GI50: 1510 nM
ACHN; [3]
  CC50: > 100000 nM
CAKI-1; [4]
  GI50: 29.5 nM
CAKI-1; [3]
  CC50: > 100000 nM
SF-295; [4]
  GI50: < 10 nM
SF-295; [3]
  CC50: < 10 nM
[2]
  IC50's in cytotoxicity assays: low nanomolar
SK-MEL-28; [4]
  GI50: 1780 nM
SK-MEL-28; [3]
  CC50: 7760 nM
OVCAR-4; [4]
  GI50: 3890 nM
OVCAR-4; [3]
  CC50: > 100000 nM
